In US20240239806A1, “COMPOUNDS, COMPOSITIONS AND METHODS OF TREATING DISORDERS” (Chengdu Anticancer Bioscience, Ltd., priority 2021, published 2024) one finds minimal effective concentration, EC50 and IC50 data, which are given here for one compound.

One experiment relates to SW480. Description: MECP in cancer cell line. In kind it is cell-based. The note with it: Homo sapiens. The protocol: (§1) Six lung cancer cell lines (NCI-H23, NCI-H460, NCI-H596, NCI-H2170, Calu-6 and A549), two colon cancer cell lines (HCT116 and SW460), one breast cancer cell line MDA-MB-231, one gastric cancer cell line NCI-N87, one prostate cancer cell line DU145, one cervical cancer cell line Hela, and one glioblastoma cell line T98G were obtained from ATCC. The T2 HCC cell line was derived from a mouse liver cancer model initiated by a transgene of MYC. All cell lines were cultured in DMEM (Gibco, Cleveland, TN, USA) supplemented with 5% fetal bovine serum (Gibco), penicillin (100 U/mL)—streptomycin (100 μg/mL) (Gibco, Cat. No. 15140-122), 2 mM L-glutamine (Gibco, 200 mM solution, Cat. No. 25030081), and 1 mM sodium pyruvate (Gibco, 100 mM solution, Cat. No. 11360070) at 37° C. in a humidified incubator that was maintained at 5% CO2.
(§2) We have previously developed a mechanism-informed phenotypic screening assay to identify novel antimitotic agents. Equipped with a prior understanding of the versatile functions of the chromosomal passenger protein (CPP) complex in orchestrating karyokinesis and cytokinesis, the screening assay is to score for phenotypes typically seen when the CPP complex is disabled. Specifically, the parameters for a positive hit are a temporary elevation of mitotic index (MI) at 24 hours of drug treatment and an accumulation of polyploid cells at 48 hours of drug treatment, indicative of mitotic arrest and cytokinetic failure respectively. These parameters exclude compounds that elicit only a prolonged arrest of cells in mitosis, a phenotype typically provoked by spindle toxins. The screening procedure is briefly summarized here. RPEMYC^H2B-GFP cells engineered to express a Histone 2B-EGFP fusion protein were passaged as batches of 96-well plates, 18-24 hours before exposure to the chemical compounds of the present disclosure at concentrations from 1 nM to 30 μM. At 24, 48 or 72 hours after initiation of treatment, cells were analyzed for either an arrest in mitosis or a change in DNA content by GE IN-Cell Analyzer 2000. As set forth in Table 2 below, a value of greater than or equal to 1 nM and less than or equal to 1.0 μM is marked “A”; a value greater than 1.00 μM and less than or equal to 10.0 μM is marked “B”; a value greater than 10.0 μM and less than or equal to 30.0 μM is marked “C”; and a value greater than 30.0 μM is marked “D.”
Turning to `COc1cc(NC(C)=O)cc(Oc2ccnc3ccc(OC)cc23)c1` [Compound 18, N-(3-methoxy-5-((6-methoxyquinolin-4-yl)oxy)phenyl)acetamide], the minimal effective concentration was 0.001 to 1 µM.

For the next experiment, the system named is T2 HCC. Description: MECP in cancer cell line. Type of experiment: cell-based. The note with it: Mus musculus. On the procedure:
as §1, §2
`COc1cc(NC(C)=O)cc(Oc2ccnc3ccc(OC)cc23)c1` [Compound 18, N-(3-methoxy-5-((6-methoxyquinolin-4-yl)oxy)phenyl)acetamide] registered a minimal effective concentration of 0.001 to 1 µM.

The subject of a further experiment is Hela. Description: MECP in cancer cell line. The note with it: Homo sapiens. Type of experiment: cell-based. On the procedure: as §1, §2
For `COc1cc(NC(C)=O)cc(Oc2ccnc3ccc(OC)cc23)c1` [Compound 18, N-(3-methoxy-5-((6-methoxyquinolin-4-yl)oxy)phenyl)acetamide], the minimal effective concentration fell in the range of 0.001 to 1 µM.

In the next experiment the test system is MDA-MB-231. The experiment in a line: MECP in cancer cell line. In kind it is cell-based. To be noted: Homo sapiens. The protocol: as §1, §2
In turn, `COc1cc(NC(C)=O)cc(Oc2ccnc3ccc(OC)cc23)c1` [Compound 18, N-(3-methoxy-5-((6-methoxyquinolin-4-yl)oxy)phenyl)acetamide] showed a minimal effective concentration of 0.001 to 1 µM.

Another experiment concerns HCT116. The experiment in a line: MECP in cancer cell line. In kind it is cell-based. To be noted: Homo sapiens, HCT-116. On the procedure: as §1, §2
The compound `COc1cc(NC(C)=O)cc(Oc2ccnc3ccc(OC)cc23)c1` [Compound 18, N-(3-methoxy-5-((6-methoxyquinolin-4-yl)oxy)phenyl)acetamide] came in with a minimal effective concentration of 0.001 to 1 µM.

Another experiment relates to A549. Description: MECP in cancer cell line. In kind it is cell-based. To be noted: Homo sapiens. On the procedure: as §1, §2
For `COc1cc(NC(C)=O)cc(Oc2ccnc3ccc(OC)cc23)c1` [Compound 18, N-(3-methoxy-5-((6-methoxyquinolin-4-yl)oxy)phenyl)acetamide], the minimal effective concentration is 0.001 to 1 µM.

In another experiment the test system is SW480. Description: MTT assay of cellular proliferation. Type of experiment: cell-based. To be noted: Homo sapiens, 50% inhibition of cellular proliferation. On the procedure: as §1
(§3) The MTT assay measures cellular metabolic activity as a proxy for cell viability and involves the conversion of the water-soluble yellow dye MTT [3-(4,5-dimethylthiazol-2-yl)-2,5-diphenyltetrazolium bromide] into an insoluble purple formazan by the action of mitochondrial reductase. Formazan is then solubilized and its concentration is determined by measuring the optical density (OD) value at a wavelength of 570 nm. The value is in proportional to the number of live cells with excellent linearity up to ˜10^6 cells per well. The MTT assay was used to determine the EC50 value, the concentration of a compound that leads to 50% inhibition of cellular proliferation. Briefly, cells were split when growing to the mid-Log phase. Cells in 100 μL of culture medium were seeded into each well of 96-well microplates and cultivated for 15-24 hours to reach a confluence of 20-30% and were then exposed to drugs at concentrations ranging from 1 nM to 30 μM. At the endpoint, 20 μL of a MTT stock solution in DMSO (5 mg/mL) was added to each well that contains 100 μL of DMEM. The microplates were left in the cell culture incubator for 3-4 h before subjected to solubilization and determination of formazan at A570 in a microplate reader (BioTek ELX808iu). […] Therefore, these compounds might hold a broad utility in the treatment of a large variety of human malignancies.
`COc1cc(NC(C)=O)cc(Oc2ccnc3ccc(OC)cc23)c1` [Compound 18, N-(3-methoxy-5-((6-methoxyquinolin-4-yl)oxy)phenyl)acetamide] gave an EC50 of 1 to 1000 nM.

For a further experiment, the system named is T2 HCC. The experiment in a line: MTT assay of cellular proliferation. In kind it is cell-based. The note with it: Mus musculus, 50% inhibition of cellular proliferation. The protocol:
as §1, §3
Consider `COc1cc(NC(C)=O)cc(Oc2ccnc3ccc(OC)cc23)c1` [Compound 18, N-(3-methoxy-5-((6-methoxyquinolin-4-yl)oxy)phenyl)acetamide], for which the EC50 is 1 to 1000 nM.

The test system of another experiment is Hela. The experiment in a line: MTT assay of cellular proliferation. Type of experiment: cell-based. The note with it: Homo sapiens, 50% inhibition of cellular proliferation. On the procedure:
as §1, §3
`COc1cc(NC(C)=O)cc(Oc2ccnc3ccc(OC)cc23)c1` [Compound 18, N-(3-methoxy-5-((6-methoxyquinolin-4-yl)oxy)phenyl)acetamide] returned an EC50 of 1 to 1000 nM.

The subject of a further experiment is MDA-MB-231. Description: MTT assay of cellular proliferation. In kind it is cell-based. To be noted: Homo sapiens; MDA-MB-231, MTT, 50% inhibition of cellular proliferation. The protocol: as §1, §3
`COc1cc(NC(C)=O)cc(Oc2ccnc3ccc(OC)cc23)c1` [Compound 18, N-(3-methoxy-5-((6-methoxyquinolin-4-yl)oxy)phenyl)acetamide] displayed an EC50 of 1 to 1000 nM.

A further experiment deals with HCT116. Description: MTT assay of cellular proliferation. In kind it is cell-based. The note with it: Homo sapiens, HCT-116, 50% inhibition of cellular proliferation. On the procedure: as §1, §3
`COc1cc(NC(C)=O)cc(Oc2ccnc3ccc(OC)cc23)c1` [Compound 18, N-(3-methoxy-5-((6-methoxyquinolin-4-yl)oxy)phenyl)acetamide] gave an EC50 of 1 to 1000 nM.

The next experiment has as its system NCI-N87. Description: MTT assay of cellular proliferation. In kind it is cell-based. The note with it: Homo sapiens, 50% inhibition of cellular proliferation. On the procedure:
as §1, §3
In turn, `COc1cc(NC(C)=O)cc(Oc2ccnc3ccc(OC)cc23)c1` [Compound 18, N-(3-methoxy-5-((6-methoxyquinolin-4-yl)oxy)phenyl)acetamide] gave an EC50 of 1 to 1000 nM.

A further experiment has as its system NCI-H23. Description: MTT assay of cellular proliferation. To be noted: Homo sapiens, 50% inhibition of cellular proliferation. In kind it is cell-based. The protocol:
as §1, §3
`COc1cc(NC(C)=O)cc(Oc2ccnc3ccc(OC)cc23)c1` [Compound 18, N-(3-methoxy-5-((6-methoxyquinolin-4-yl)oxy)phenyl)acetamide]: the EC50 was in the range of 1 to 1000 nM.

The next experiment has as its system A549. The experiment in a line: MTT assay of cellular proliferation. In kind it is cell-based. The note with it: Homo sapiens, 50% inhibition of cellular proliferation. The protocol: as §1, §3
In turn, `COc1cc(NC(C)=O)cc(Oc2ccnc3ccc(OC)cc23)c1` [Compound 18, N-(3-methoxy-5-((6-methoxyquinolin-4-yl)oxy)phenyl)acetamide] came in with an EC50 of 1 to 1000 nM.

For another experiment, the system named is RPEMYC^H2B-GFP cells. The experiment in a line: Phenotypic screening assay (mitotic arrest, polyploidy). In kind it is cell-based. The note with it: 1 nM to 30 μM, read-out: Min. Effective conc. for Polyploidy (≥5%). Put shortly:
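RPE cells expressing MYC and H2B-EGFP treated with compound at 1 nM–30 μM; mitotic index scored at 24 h and polyploidy (DNA content) at 48 h by automated imaging, with reads at 24, 48 or 72 h. Hits show transient mitotic arrest followed by polyploid accumulation.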
For `COc1cc(NC(C)=O)cc(Oc2ccnc3ccc(OC)cc23)c1` [Compound 18, N-(3-methoxy-5-((6-methoxyquinolin-4-yl)oxy)phenyl)acetamide], the minimal effective concentration is 0.001 to 1 µM.

Staying with this experiment, now noted: 1 nM to 30 μM, read-out: Mitotic Arrest (≥5%).
With `COc1cc(NC(C)=O)cc(Oc2ccnc3ccc(OC)cc23)c1` [Compound 18, N-(3-methoxy-5-((6-methoxyquinolin-4-yl)oxy)phenyl)acetamide], the minimal effective concentration lay in the range of 0.001 to 1 µM.

Staying with this experiment, now noted: 1 nM to 30 μM, read-out: Proliferative arrest (>50%).
On to `COc1cc(NC(C)=O)cc(Oc2ccnc3ccc(OC)cc23)c1` [Compound 18, N-(3-methoxy-5-((6-methoxyquinolin-4-yl)oxy)phenyl)acetamide], for which the IC50 lay within 1 to 1000 nM.

The test system of another experiment is NCI-N87. Description: MECP in cancer cell line. In kind it is cell-based. The note with it: Homo sapiens. The protocol: as §1, with “CO2. […]” for “CO2.”
Consider `COc1cc(NC(C)=O)cc(Oc2ccnc3ccc(OC)cc23)c1` [Compound 18, N-(3-methoxy-5-((6-methoxyquinolin-4-yl)oxy)phenyl)acetamide], for which the minimal effective concentration fell in the range of 0.001 to 1 µM.

The subject of another experiment is NCI-H23. Description: MECP in cancer cell line. In kind it is cell-based. To be noted: Homo sapiens. On the procedure: as §1, with “CO2. […]” for “CO2.”
In turn, `COc1cc(NC(C)=O)cc(Oc2ccnc3ccc(OC)cc23)c1` [Compound 18, N-(3-methoxy-5-((6-methoxyquinolin-4-yl)oxy)phenyl)acetamide] registered a minimal effective concentration of 0.001 to 1 µM.
